Laboratory results reported in patent US9393313B2, “Drug entrapment efficiency and sustained drug release of chloramphenicol loaded polymeric-iron nanoparticles” (priority 2014, dated 2016).

Columns and labels:
[1] = In-vitro drug release / drug entrapment efficiency in PBS by UV spectroscopy at 278 nm; format: physicochemical
Procedure: 30 mg of CHL-loaded nanoparticles were dispersed and homogenized in 100 mL of PBS, pH 7.4 (purchased from Sigma Aldrich) which releases all entrapped CHL from the nanocomposite. Before homogenization, nanocomposite formulation was cleared from free drug molecules by washing with distilled water. Ultraviolet (UV) spectroscopy at a wavelength of 278 nm was employed for completely developing entire content of entrapped chloramphenicol in triplicates. A solution of drug-free nanocomposite (30 mg) in distilled water was employed as a reference, thus reducing the chances of interference by excipients and polymer used to prepare the nanocomposite. Following equation was utilized to evaluate drug entrapment efficiency (DEE) value, as was reported in a paper by Harilall S, Choonara Y E. et al. %DEE=D1/D2*100 Where D1 is the actual quantity of drug (mg/100 mL) and D2 is the theoretical quantity of drug (mg/100 mL) entrapped within the formulation. Precision of the results was made certain by calculating the average DEE of five samples.
An in-vitro drug release study was conducted on the basis of a paper reported by Harilall S, Choonara Y E. et al. for the zidovudine release study. CHL-loaded nanocomposite, nanocomposite and commercially available CHL were submerged in 100 mL PBS discretely and then sited these set of preparations in an orbital shaking incubator (20 rpms, 37° C.). Portions of these preparations were taken at altered time interims for 48 hours and substituted by equal quantities of buffer solution and were evaluated by UV spectroscopy for CHL absorption at a wavelength of 278 nm.

[2] = system: Gram positive cocci (Separate); assay: Anti-bacterial activity, agar well zone of inhibition; format: cell-based; settings: 48 h
Procedure: (§1) Nutrient broth was prepared by dissolving 0.2 g in 25 mL distilled water in erlenmeyer flask. The flask was then sterilized in an autoclave at the 121° C. for 15 minutes after applying cotton plug to cover its mouth. This growth media was utilized to prepare inoculums of all strains of bacteria. After adding a loop full of bacterial strain in it, the flask was placed in shaking incubator at 37° C. for the night. The plates were inoculated after the incubated broth was diluted up to 10^−2.
(§2) 0.8 g nutrient broth and 2 g of agar were added to 100 mL autoclaved water in an erlenmeyer flask. Apply cotton plug to the flask and then sterilize it in an autoclave at the 121° C. for 15 minutes. Each petri plate was poured with 15-20 mL of agar which was then solidified and inoculated with the bacterial strain. 50 μL of sample suspension was poured in wells that have the diameter of 0.4 cm. All sample suspensions were made by adding 5 mg of product in 1 mL distilled water. Zones of inhibition were observed after keeping these plates at 37° C. for 48 hours.

[3] = system: Gram positive Streptococci; assay: as above; format: cell-based; settings: 50 μL of 5 mg/mL suspension in 0.4 cm wells, 37° C. for 48 hours
Procedure: as §1, §2

Gram positive sarccina = assay: as above; format: cell-based; settings: 50 μL of 5 mg/mL suspension in 0.4 cm wells, 37° C. for 48 hours
Procedure: as §1, §2

## O=C(N[C@H](CO)[C@H](O)c1ccc([N+](=O)[O-])cc1)C(Cl)Cl [CHL, chloramphenicol]
[1]; PBS
  Time in which almost the whole drug is released: 3 to 4 h
[1]; first hour of exposure to PBS, 37° C.
  DEE (FIG. 7, in-vitro drug release): 91%
[1]; fourth hour in PBS (third of the next three hours)
  DEE (FIG. 7, in-vitro drug release): 97%
[1]; second hour in PBS (first of the next three hours)
  DEE (FIG. 7, in-vitro drug release): 94%
[1]; third hour in PBS (second of the next three hours)
  DEE (FIG. 7, in-vitro drug release): 97%
[2]
  zone of inhibition at 5000 µg/mL: 4 mm
[3]
  zone of inhibition at 5000 µg/mL: 6 mm
Gram positive sarccina
  zone of inhibition at 5000 µg/mL: 2 mm
